Tested on: Aorta
Assay: Vasorelaxation activity against phenylephrine-stimulated contraction in Wistar rat thoracic aorta at 30 uM
Format: functional
Design: scale not given: the % may be the effect or the level left

SMILES | Activity
COC(=O)[C@]12COCC[C@@H]3[C@H](c4c1[nH]c1ccccc41)N(C)CC[C@@H]32 [UNDULIFOLINE] | 33.3%
COC(=O)[C@@]12COCC[C@H]3[C@@H]1CC[N@@+](C)([O-])[C@H]3c1c2[nH]c2ccccc12 [ALSTILOBANINE B] | 21.2%
COC(=O)[C@@]12COCC[C@@H]3[C@@H](NCC[C@@H]31)c1c2[nH]c2ccccc12 [ALSTILOBANINE C] | 28%
COC(=O)[C@@]1(c2cc3ccccc3[nH]2)COCC=C2CN(C)CC[C@@H]21 [6,7-SECO-ANGUSTILOBINE B] | 7%
COC(=O)[C@@]1(c2cc3ccccc3[nH]2)COCC=C2C[N@+](C)([O-])CC[C@@H]21 [ALSTILOBANINE D] | 10%
COC(=O)[C@@]12COC[C@H](c3c1[nH]c1ccccc31)[C@]1(O)CNCC[C@@H]12 [ALSTILOBANINE E] | 6.8%
COC(=O)[C@]1(CO)c2[nH]c3ccccc3c2[C@@H](C)[C@]2(O)CNCC[C@@H]21 [ALSTILOBANINE A] | 44.3%
O=C(O)[C@@]12COCC=C3CN(CC[C@@H]31)Cc1c2[nH]c2ccccc12 [ALSTONAMIC ACID] | 35%
